From ChEMBL document CHEMBL4138296, “Nonacidic Chemotype Possessing N-Acylated Piperidine Moiety as Potent Farnesoid X Receptor (FXR) Antagonists” (ACS Med Chem Lett, 2018)
The source made the active and inactive calls. The rule behind the calls is not given here.

How the values were obtained:
[1] = target: T1, Vitamin D3 receptor (Homo sapiens) (UniProt P11473); assay: Antagonist activity at human VDR expressed in HEK293T cells assessed as inhibition of 1,25(OH)2VD3-induced response at 1 uM after 24 hrs by luciferase reporter gene assay; type: cell-based
T1 sequence (whole entry): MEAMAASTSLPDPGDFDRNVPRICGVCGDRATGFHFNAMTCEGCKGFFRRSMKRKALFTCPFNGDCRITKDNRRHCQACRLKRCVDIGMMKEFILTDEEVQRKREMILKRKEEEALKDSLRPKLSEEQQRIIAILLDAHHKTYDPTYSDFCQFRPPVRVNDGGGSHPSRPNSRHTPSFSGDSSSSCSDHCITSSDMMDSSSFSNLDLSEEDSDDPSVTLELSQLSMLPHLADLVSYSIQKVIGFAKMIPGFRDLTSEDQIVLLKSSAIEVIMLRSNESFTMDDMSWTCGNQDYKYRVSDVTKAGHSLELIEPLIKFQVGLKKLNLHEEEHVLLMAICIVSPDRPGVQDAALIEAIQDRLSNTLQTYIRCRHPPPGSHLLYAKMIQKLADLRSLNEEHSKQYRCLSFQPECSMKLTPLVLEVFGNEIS

[2] = target: T2, Peroxisome proliferator-activated receptor alpha (Homo sapiens) (UniProt Q07869); assay: Antagonist activity at PPARalpha (unknown origin) assessed as inhibition of GW7647-induced response at 1 uM by luciferase reporter gene assay
T2 sequence (whole entry): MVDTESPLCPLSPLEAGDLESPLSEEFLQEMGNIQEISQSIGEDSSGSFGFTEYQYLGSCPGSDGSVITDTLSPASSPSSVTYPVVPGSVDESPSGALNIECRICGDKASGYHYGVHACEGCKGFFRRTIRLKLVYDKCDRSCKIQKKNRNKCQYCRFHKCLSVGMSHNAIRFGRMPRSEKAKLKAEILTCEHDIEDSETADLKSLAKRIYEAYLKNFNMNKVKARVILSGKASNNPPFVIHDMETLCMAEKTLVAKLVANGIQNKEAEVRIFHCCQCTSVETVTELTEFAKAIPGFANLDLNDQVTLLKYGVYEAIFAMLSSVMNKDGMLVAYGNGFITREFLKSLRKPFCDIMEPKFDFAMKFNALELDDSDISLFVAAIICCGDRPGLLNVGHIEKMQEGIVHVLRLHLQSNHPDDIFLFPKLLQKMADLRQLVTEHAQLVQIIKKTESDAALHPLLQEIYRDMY

[3] = target: T3, Peroxisome proliferator-activated receptor gamma (Homo sapiens) (UniProt P37231); assay: Antagonist activity at PPARgamma (unknown origin) assessed as inhibition of GW1929-induced response at 1 uM by luciferase reporter gene assay
T3 sequence (whole entry): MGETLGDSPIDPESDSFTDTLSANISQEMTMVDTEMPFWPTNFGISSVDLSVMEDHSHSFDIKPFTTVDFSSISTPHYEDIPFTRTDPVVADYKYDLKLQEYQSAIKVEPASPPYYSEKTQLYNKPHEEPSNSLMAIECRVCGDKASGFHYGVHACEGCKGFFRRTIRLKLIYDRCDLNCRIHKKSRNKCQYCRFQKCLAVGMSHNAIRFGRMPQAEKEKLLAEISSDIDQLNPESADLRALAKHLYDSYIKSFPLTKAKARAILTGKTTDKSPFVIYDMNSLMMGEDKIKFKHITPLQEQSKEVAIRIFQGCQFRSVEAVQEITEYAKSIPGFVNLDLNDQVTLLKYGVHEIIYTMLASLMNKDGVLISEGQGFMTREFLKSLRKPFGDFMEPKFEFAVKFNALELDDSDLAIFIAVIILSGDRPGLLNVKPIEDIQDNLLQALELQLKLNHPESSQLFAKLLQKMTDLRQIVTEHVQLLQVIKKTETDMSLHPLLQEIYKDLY

[4] = target: T1, Vitamin D3 receptor (Homo sapiens); assay: Agonist activity at human VDR expressed in HEK293T cells at 1 uM by luciferase reporter gene assay; type: cell-based
[5] = target: T2, Peroxisome proliferator-activated receptor alpha (Homo sapiens); assay: Agonist activity at PPARalpha (unknown origin) at 1 uM by luciferase reporter gene assay
[6] = target: T4, Oxysterols receptor LXR-beta (Homo sapiens) (UniProt P55055); assay: Agonist activity at LXRbeta (unknown origin) at 1 uM by luciferase reporter gene assay
T4 sequence (whole entry): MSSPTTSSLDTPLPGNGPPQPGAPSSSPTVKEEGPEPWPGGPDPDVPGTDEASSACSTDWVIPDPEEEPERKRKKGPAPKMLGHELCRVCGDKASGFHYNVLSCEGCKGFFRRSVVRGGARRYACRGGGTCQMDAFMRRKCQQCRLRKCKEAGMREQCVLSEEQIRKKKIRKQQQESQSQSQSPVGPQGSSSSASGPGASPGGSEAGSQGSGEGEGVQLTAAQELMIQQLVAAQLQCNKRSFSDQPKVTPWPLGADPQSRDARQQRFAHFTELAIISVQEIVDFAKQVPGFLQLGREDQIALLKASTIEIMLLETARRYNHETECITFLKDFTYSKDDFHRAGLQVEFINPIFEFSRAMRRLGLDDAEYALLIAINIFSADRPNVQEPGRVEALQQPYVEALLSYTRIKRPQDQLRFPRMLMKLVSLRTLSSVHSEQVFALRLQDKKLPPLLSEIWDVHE

[7] = target: T5, G-protein coupled bile acid receptor 1 (Homo sapiens) (UniProt Q8TDU6); assay: Agonist activity at TGR5 (unknown origin) at 1 uM by luciferase reporter gene assay; type: functional
T5 sequence (whole entry): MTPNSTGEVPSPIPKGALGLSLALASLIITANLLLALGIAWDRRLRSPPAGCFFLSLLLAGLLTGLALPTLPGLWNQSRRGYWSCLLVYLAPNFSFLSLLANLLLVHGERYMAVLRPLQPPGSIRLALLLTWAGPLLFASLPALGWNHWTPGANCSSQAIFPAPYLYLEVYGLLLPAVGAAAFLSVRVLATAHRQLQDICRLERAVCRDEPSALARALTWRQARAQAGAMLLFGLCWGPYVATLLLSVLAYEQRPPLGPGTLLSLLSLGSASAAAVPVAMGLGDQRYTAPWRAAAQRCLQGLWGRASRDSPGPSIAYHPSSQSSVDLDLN

[8] = test system: 3T3-L1; assay: Cytotoxicity against mouse 3T3L1 cells assessed as reduction in cell viability measured up to 10 uM after 6 days by CCK-8 assay; type: cell-based; details: 3t3-l1, 144 h
[9] = test system: 3T3-L1; assay: Antiadipogenic activity in mouse 3T3L1 cells assessed as inhibition of CDCA-induced intracellular lipid droplets after 6 days by Oil Red O staining based assay; type: functional, cell-based
[10] = test system: 3T3-L1; assay: Antiadipogenic activity in mouse 3T3L1 cells assessed as inhibition of CDCA-induced triglyceride accumulation after 6 days; type: functional, cell-based

inhibition [1]: inactive
inhibition [2]: inactive
inhibition [3]: inactive
Activity [4]: inactive
Activity [5]: inactive
Activity [6]: inactive
Activity [7]: inactive
Compound: Cc1ccc2nc([C@H](CC3CCN(C(=O)C(C)C)CC3)N3C(=O)CN(c4ccc(Oc5ccccc5)cc4)C3=O)n(C)c2c1
Activity [8]: Non-Toxic
inhibition [9]: Dose-dependent effect
inhibition [10]: Dose-dependent effect
